Literature values as cited in US20070254858A1, “Contraceptive and Acne Medication Combination and Treatment of Acne and Other Diseases with Reduced Side Effects” (priority 2006, published 2007).

Columns and labels:
[1] = test system: androgen (testosterone-like) activity; conditions: 1 mg of progestin; activity of 1 mg of norethindrone taken as baseline
progesterone activity = conditions: 1 mg of progestin; activity of 1 mg of norethindrone taken as baseline
[2] = test system: sebaceous gland / sebocytes
severe acne = conditions: within 12 to 16 weeks of isotretinoin treatment
[3] = in vivo

C#C[C@]1(O)CC[C@H]2[C@@H]3CCC4=CC(=NO)CC[C@@H]4[C@H]3CC[C@@]21CC (mixture of isomers) [norelgestromin]
Androgen Activity [1]: 1.9
Progestational Activity (progesterone activity): 1.3

C#C[C@]1(OC(C)=O)CC[C@H]2[C@@H]3CCC4=CC(=NO)CC[C@@H]4[C@H]3CC[C@@]21CC (mixture of isomers) [norgestimate]
Progestational Activity (progesterone activity): 1.3

C#CC1(O)CC[C@H]2[C@@H]3CCC4=CC(=O)CC[C@@H]4[C@H]3CC[C@@]21CC (mixture of isomers) [dl-norgestrel]
Progestational Activity (progesterone activity): 2.6

C#C[C@]1(O)CC[C@H]2[C@@H]3CCC4=CCCC[C@@H]4[C@H]3C(=C)C[C@@]21CC [desogestrel]
Progestational Activity (progesterone activity): 9

C[C@]12CCC(=O)C=C1[C@@H]1C[C@@H]1[C@H]1[C@@H]3[C@@H]4C[C@@H]4[C@@]4(CCC(=O)O4)[C@@]3(C)CC[C@@H]12 [drospirenone]
Androgen Activity [1]: 0
Progestational Activity (progesterone activity): 1.5

C#C[C@]1(OC(C)=O)CC[C@H]2[C@@H]3CCC4=C[C@@H](OC(C)=O)CC[C@@H]4[C@H]3CC[C@@]21C [ethynodiol diacetate]
Progestational Activity (progesterone activity): 1.4

CC1=C(/C=C/C(C)=C/C=C/C(C)=C\C(=O)O)C(C)(C)CCC1 [isotretinoin, 13-cis-retinoic acid]
reduction of sebocyte lipid synthesis ([2]; daily doses as low as 0.1 mg/kg after four weeks): 75%
reduction of sebaceous gland size ([2]; in vivo): up to 90%
people with severe acne in complete or near complete cure (severe acne): Up to 90%
effect of food on absorption (drug taken with food): absorption is enhanced
accumulation in the skin (during long term administration): no progressive accumulation
parent drug in urine (oral isotretinoin): No parent drug is identified in the urine
placental transfer (oral isotretinoin): crosses the placenta
half-life (oral isotretinoin, compared to etretinate): 7 to 37 h
most significant side effect [3]: teratogenicity (birth defects)

C#C[C@]1(OC(C)=O)CC[C@H]2[C@@H]3CCC4=CC(=O)CC[C@@H]4[C@H]3CC[C@@]21C [norethindrone acetate]
Progestational Activity (progesterone activity): 1.2

C#C[C@]1(O)CC[C@H]2[C@@H]3CCC4=CC(=O)CC[C@@H]4[C@H]3CC[C@@]21C [norethindrone]
Progestational Activity (progesterone activity): 1
